Experimental data taken from patent US20080021030A1, “Substituted Pyrazoles As Ppar Agonists” (priority 2003, published 2008).

How the values were obtained:
hPPAR gamma = target: T1, hPPAR gamma (Homo sapiens, UniProt P37231); assay: Transient transfection (transactivation) assay in CV-1 cells, GAL4-PPAR LBD chimera, SPAP reporter; format: cell-based; conditions: read-out: EC50 μM HPPARγ
T1 construct: expressed in transfected cells; host or cells: CV-1 cells
T1 sequence (P37231 238-503 limits assumed): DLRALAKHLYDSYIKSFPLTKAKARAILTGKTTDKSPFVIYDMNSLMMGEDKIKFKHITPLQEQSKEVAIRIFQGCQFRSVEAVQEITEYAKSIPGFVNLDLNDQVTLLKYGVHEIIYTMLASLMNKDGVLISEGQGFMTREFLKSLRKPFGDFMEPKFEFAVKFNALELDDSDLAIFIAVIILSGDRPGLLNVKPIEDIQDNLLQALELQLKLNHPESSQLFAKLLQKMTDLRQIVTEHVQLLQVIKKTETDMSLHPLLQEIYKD
Text: Compounds were screened for functional potency in transient transfection assays in CV-1 cells for their ability to activate the PPAR subtypes (transactivation assay). A previously established chimeric receptor system was utilized to allow comparison of the relative transcriptional activity of the receptor subtypes on the same target gene and to prevent endogenous receptor activation from complicating the interpretation of results. […] The ligand binding domains for murine and human PPAR alpha, PPAR gamma, and PPAR delta were each fused to the yeast transcription factor GAL4 DNA binding domain. CV-1 cells were transiently transfected with expression vectors for the respective PPAR chimera along with a reporter construct containing five copies of the GAL4 DNA binding site driving expression of secreted placental alkaline phosphatase (SPAP) and beta-galactosidase. After 16 h, the medium was exchanged to DME medium supplemented with 10% delipidated fetal calf serum and the test compound at the appropriate concentration. After an additional 24 h, cell extracts were prepared and assayed for alkaline phosphatase and β-galactosidase activity.

hPPAR delta = target: T2, hPPAR delta (Homo sapiens, UniProt Q03181); assay: Transient transfection (transactivation) assay in CV-1 cells, GAL4-PPAR LBD chimera, SPAP reporter; format: cell-based; conditions: read-out: EC50 μM HPPARδ
T2 construct: expressed in transfected cells; host or cells: CV-1 cells
T2 sequence (Q03181 211-439 limits assumed): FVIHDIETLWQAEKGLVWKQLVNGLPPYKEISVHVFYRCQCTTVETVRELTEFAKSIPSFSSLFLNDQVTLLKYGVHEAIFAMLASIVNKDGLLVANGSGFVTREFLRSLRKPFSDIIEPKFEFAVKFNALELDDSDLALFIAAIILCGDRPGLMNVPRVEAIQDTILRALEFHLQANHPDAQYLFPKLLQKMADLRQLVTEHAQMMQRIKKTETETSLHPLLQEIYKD
Text: (§1) Compounds were screened for functional potency in transient transfection assays in CV-1 cells for their ability to activate the PPAR subtypes (transactivation assay). A previously established chimeric receptor system was utilized to allow comparison of the relative transcriptional activity of the receptor subtypes on the same target gene and to prevent endogenous receptor activation from complicating the interpretation of results. See, for example, Lehmann, J. M.; Moore, L. B.; Smith-Oliver, T. A.; Wilkison, W. O.; Willson, T. M.; Kliewer, S. A., An antidiabetic thiazolidinedione is a high affinity ligand for peroxisome proliferator-activated receptor gamma (PPARgamma), J. Biol. Chem., 270, 12953-6 (1995). The ligand binding domains for murine and human PPAR alpha, PPAR gamma, and PPAR delta were each fused to the yeast transcription factor GAL4 DNA binding domain. CV-1 cells were transiently transfected with expression vectors for the respective PPAR chimera along with a reporter construct containing five copies of the GAL4 DNA binding site driving expression of secreted placental alkaline phosphatase (SPAP) and beta-galactosidase. After 16 h, the medium was exchanged to DME medium supplemented with 10% delipidated fetal calf serum and the test compound at the appropriate concentration. After an additional 24 h, cell extracts were prepared and assayed for alkaline phosphatase and β-galactosidase activity. Alkaline phosphatase activity was corrected for transfection efficiency using the beta-galactosidase activity as an internal standard (see, for example, Kliewer, S. A., et. al. Cell 83, 813-819 (1995)). Rosiglitazone (BRL 49653) was used as a positive control in the hPPAR gamma assay. The positive control in the hPPAR alpha assays was 2-4-[2-(3-[4-fluorophenyl]-1-heptylureido)ethyl]-phenoxy-(2-methyl propionic acid (WO 97/36579). The positive control for PPAR delta assays was 2-{2-methyl-4-[({4-methyl-2-{trifluoromethyl)phenyl]-1,3-thiazol-5-yl}methyl)sulfanyl]phenoxy}acetic acid (WO 01/00603). The positive control was (5-{4-[2-(Methyl-pyridin-2-yl-amino)-ethoxy]-benzyl}-thiazolidine-2,4-dione (J. Med. Chem. 1994, 37(23), 3977), for PPAR gamma.
(§2) Activities in three hPPAR subtypes are reported in the table and are expressed in micromolar.

hPPAR alpha = target: T3, hPPAR alpha (Homo sapiens, UniProt Q07869); assay: as above; format: cell-based; conditions: read-out: EC50 μM HPPARα
T3 construct: expressed in transfected cells; host or cells: CV-1 cells
T3 sequence (Q07869 239-466 limits assumed): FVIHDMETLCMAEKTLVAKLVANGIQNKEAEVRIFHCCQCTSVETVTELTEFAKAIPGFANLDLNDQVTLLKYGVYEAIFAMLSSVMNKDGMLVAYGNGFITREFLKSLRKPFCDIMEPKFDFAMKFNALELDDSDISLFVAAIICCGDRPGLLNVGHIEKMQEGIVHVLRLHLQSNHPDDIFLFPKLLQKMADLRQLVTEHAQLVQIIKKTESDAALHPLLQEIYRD
Text: as §1, §2

Row | EC50 (hPPAR gamma) | melting point | EC50 (hPPAR delta) | EC50 (hPPAR alpha) | SMILES
1 | 0.016 µM | > 122 °C | 1 µM | 0.003 µM | Cc1cc(CNC(=O)c2cc(-c3ccc(C(C)(C)C)cc3)nn2C)cc(C)c1OC(C)(C)C(=O)O [Example 26, 2-{4-[({[3-(4-tert-butylphenyl)-1-methyl-1H-pyrazol-5-yl]carbonyl}amino)methyl]-2,6-dimethylphenoxy}-2-methylpropanoic acid]
2 | 0.031 µM | 75 to 80 °C | 0.206 µM | < 0.001 µM | Cc1cc(CNC(=O)c2cc(-c3ccc(CC(C)C)cc3)n(C)n2)cc(Cl)c1OC(C)(C)C(=O)O [Example 27, 2-{2-chloro-4-[({[5-(4-isobutylphenyl)-1-methyl-1H-pyrazol-3-yl]carbonyl}amino)methyl]-6-methylphenoxy}-2-methylpropanoic acid]
3 | 1.47 µM | 88 °C | > 25 µM | 0.589 µM | Cc1cc(CNC(=O)c2cc(-c3cccc(-c4ccccc4)c3)nn2C)ccc1OC(C)(C)C(=O)O [Example 28, 2-[4-({[(3-biphenyl-3-yl-1-methyl-1H-pyrazol-5-yl)carbonyl]amino}methyl)-2-methylphenoxy]-2-methylpropanoic acid]
4 | 0.229 µM | 84 to 92 °C | 3.12 µM | 0.046 µM | Cc1cc(CNC(=O)c2cc(-c3ccc(Br)cc3)n(C)n2)ccc1OC(C)(C)C(=O)O [Example 30, 2-({4-[({[5-(4-bromophenyl)-1-methyl-1H-pyrazol-3-yl]carbonyl}amino)methyl]-2-methylphenyl}oxy)-2-methylpropanoic acid]
5 | 0.023 µM | 92 °C | > 25 µM | 0.015 µM | Cc1cc(CNC(=O)c2cc(-c3ccc(-c4cccs4)cc3)n(C)n2)ccc1OC(C)(C)C(=O)O [Example 32, 2-methyl-2-[(2-methyl-4-{[({1-methyl-5-[4-(2-thienyl)phenyl]-1H-pyrazol-3-yl}carbonyl)amino]methyl}phenyl)oxy]propanoic acid]
6 |  | 102 °C | 1.64 µM | 0.004 µM | Cc1cc(CNC(=O)c2cc(-c3ccc(-c4ccoc4)cc3)n(C)n2)ccc1OC(C)(C)C(=O)O [Example 33, 2-[(4-{[({5-[4-(3-furanyl)phenyl]-1-methyl-1H-pyrazol-3-yl}carbonyl)amino]methyl}-2-methylphenyl)oxy]-2-methylpropanoic acid]
7 |  | 264 °C (dec.) | > 25 µM | 0.734 µM | Cc1cc(CNC(=O)c2cc(-c3ccc(-c4ccncc4)cc3)n(C)n2)ccc1OC(C)(C)C(=O)O [Example 34, 2-methyl-2-[(2-methyl-4-{[({1-methyl-5-[4-(4-pyridinyl)phenyl]-1H-pyrazol-3-yl}carbonyl)amino]methyl}phenyl)oxy]propanoic acid]
8 | 0.054 µM | 96 °C | > 25 µM | 0.024 µM | Cc1cc(CNC(=O)c2cc(-c3ccc(-c4ccco4)cc3)n(C)n2)ccc1OC(C)(C)C(=O)O [Example 35, 2-[(4-{[({5-[4-(2-furanyl)phenyl]-1-methyl-1H-prazol-3-yl}carbonyl)amino]methyl}-2-methylphenyl)oxy]-2-methylpropanoic acid]
9 | 0.037 µM | 90 to 100 °C | 5.17 µM | 0.176 µM | Cc1cc(CNC(=O)c2cc(-c3ccc(-c4ccccc4C)cc3)nn2C)ccc1OC(C)(C)C(=O)O [Example 36, 2-methyl-2-{2-methyl-4-[({[1-methyl-3-(2′-methylbiphenyl-4-yl)-1H-pyrazol-5-yl]carbonyl}amino)methyl]phenoxy}propanoic acid]
10 | 0.021 µM | 72 °C | 0.449 µM | 0.006 µM | CCCCc1ccc(-c2cc(C(=O)NCc3cc(C)c(OC(C)(C)C(=O)O)c(C)c3)nn2C)cc1 [Example 37, 2-{4-[({[5-(4-butylphenyl)-1-methyl-1H-pyrazol-3-yl]carbonyl}amino)methyl]-2,6-dimethylphenoxy}-2-methylpropanoic acid]
11 | 0.072 µM | 74 °C | > 25 µM | 0.01 µM | CCCCc1ccc(-c2cc(C(=O)NCc3cc(C)c(OC(C)(C)C(=O)O)c(Cl)c3)nn2C)cc1 [Example 38, 2-{4-[({[5-(4-butylphenyl)-1-methyl-1H-pyrazol-3-yl]carbonyl}amino)methyl]-2-chloro-6-methylphenoxy}-2-methylpropanoic acid]
12 | 0.303 µM | 112 °C | 2.05 µM | 0.066 µM | COCCn1nc(-c2ccc(C(C)(C)C)cc2)cc1C(=O)NCc1ccc(OC(C)(C)C(=O)O)c(C)c1 [Example 48, 2-[(4-{[({3-[4-(1,1-dimethylethyl)phenyl]-1-[2-(methyloxy)ethyl]-1H-pyrazol-5-yl}carbonyl)amino]methyl}-2-methylphenyl)oxy]-2-methylpropanoic acid]
13 | 0.052 µM | 116 °C | 1.17 µM | 0.257 µM | Cc1cc(CNC(=O)c2cc(-c3ccc(C(C)(C)C)cc3)nn2CC(=O)c2ccccc2)ccc1OC(C)(C)C(=O)O [Example 49, 2-({4-[({[3-[4-(1,1-dimethylethyl)phenyl]-1-(2-oxo-2-phenylethyl)-1H-pyrazol-5-yl]carbonyl}amino)methyl]-2methylphenyl}oxy)-2-methylpropanoic acid]
14 | 0.478 µM | 65 °C | > 25 µM | 0.042 µM | COCCn1nc(C(=O)NCc2ccc(OC(C)(C)C(=O)O)c(C)c2)cc1-c1ccc(C(C)(C)C)cc1 [Example 52, 2-[(4-{[({5-[4-(1,1-dimethylethyl)phenyl]-1-[2-(methyloxy)ethyl]-1H-pyrazol-3-yl}carbonyl)amino]methyl}-2-methylphenyl)oxy]-2-methylpropanoic acid]
15 | 0.269 µM | 100 °C | > 25 µM | 0.383 µM | Cc1cc(CNC(=O)c2cc(-c3ccc(C(C)(C)C)cc3)[nH]n2)ccc1OC(C)(C)C(=O)O [Example 53, 2-[(4-{[({5-[4-(1,1-dimethylethyl)phenyl]-1H-pyrazol-3-yl}carbonyl)amino]methyl}-2-methylphenyl)oxy]-2-methylpropanoic acid]
16 | 0.069 µM |  | > 25 µM | 0.032 µM | C=CCn1nc(C(=O)NCc2ccc(OC(C)(C)C(=O)O)c(C)c2)cc1-c1ccc(C(C)(C)C)cc1 [Example 62, 2-({4-[({[5-[4-(1,1-dimethylethyl)phenyl]-1-(2-propen-1-yl)-1H-pyrazol-3-yl]carbonyl}amino)methyl]-2-methylphenyl}oxy)-2-methylpropanoic acid]
